This note sets out measurements from patent publication US20180344680A1, “COMPOSITIONS AND METHODS FOR TREATMENT, AMELIORATION, AND PREVENTION OF DIABETES-RELATED SKIN ULCERS” (THE ARIZONA BOARD OF REGENTS ON BEHALF OF THE UNIVERSITY OF …, priority 2015, published 2018).

Experiment [1] is described as follows: Body weight and blood glucose in STZ-induced diabetic mice. In kind it is in vivo, mouse. The conditions noted are these: diabetic Nrf2+/+ mice; 12.5 mg/kg SF or 50 mg/kg CA intraperitoneally every other day; vs untreated STZ.
Method: Diabetes mouse model and treatments. […] Briefly, three weeks after STZ injections, fasting glucose levels (FGL, 4 h fast) were measured using the AlphaTRAK system (Abbott Laboratory, North Chicago, Ill.) and mice with a FGL higher than or equal to 250 mg/dL were considered diabetic and included in the study (see, e.g., FIG. 2A and FIG. 3A for a detailed timeline). The mice (n=5-8) were then allocated randomly to each of the indicated treatment groups and received corn oil (control), 12.5 mg/kg SF or 50 mg/kg CA intraperitoneally every two days until skin tissues were harvested.
After induction of diabetes using STZ, diabetic Nrf2^+/+ mice were intraperitoneally injected with corn oil (vehicle control), 12.5 mg/kg SF, or 50 mg/kg CA every other day for 1 week, then the wound surgery was performed and the treatment continued for 2 more weeks (FIG. 3A).
Another experiment relates to NRF2 pathway. Put plainly: Immunoblot of NRF2 pathway in HaCaT cells under high glucose. It counts as cell-based, human. The conditions noted are these: HaCaT in high glucose (HG); 5 μmol/L SF or 20 μmol/L CA; 48 h. On the procedure: (§1) Human immortalized keratinocytes HaCaT were obtained from the Arizona Cancer Center (see, e.g., Boukamp P, et al., J Cell Biol 106:761-771, 1988). Cells were grown in Dulbecco's modified Eagle's medium (DMEM) containing low glucose (LG, 5.5 mmol/L) and 10% fetal bovine serum (FBS) in an incubator at 37° C. with 5% CO2. For the experiments, the cells were starved in serum-free LG DMEM for 24 h, then either maintained in LG DMEM or switched to high glucose (HG, 25 mmol/L) DMEM for 2 days (see, e.g., Zheng H, et al., Diabetes 60:3055-3066, 2011; Lan C C, et al., Br J Dermatol 159:1103-1115, 2008). For the treatments, the cells were dosed with 5 μmol/L SF or 20 μmol/L CA.
(§2) siRNA transfections. HaCaT cells were transfected with either a non-specific, control small interfering RNA (Con-siRNA, #1027281, Qiagen, Valencia, Calif.) or an NRF2-specific siRNA (#S100657937) using the HiPerfect transfection reagent (Qiagen) according to the manufacturer's instructions. Briefly, cells were maintained in LG or HG DMEM for 2 days and then transfected with either control or NRF2 siRNA for migration, proliferation, and apoptosis experiments. For the ROS detection, cells were maintained in LG DMEM and transfected with either control or NRF2 siRNA; 24 h later, the cells were switched to HG DMEM and treated as indicated.
Cultured HaCaT cells were harvested in 1× sample buffer (50 mM Tris-HCl pH 6.8, 2% sodium dodecyl sulfate (SDS), 10% glycerol, 100 mM dithiothreitol (DTT), 0.1% bromophenol blue), boiled and sonicated. Total cell lysates were resolved by SDS-PAGE and subjected to immunoblot analyses with the indicated antibodies. For the detection of the secreted proteins TGF-β1 and MMP9, cells were incubated 24 h in serum-free media before harvesting the medium. TGF-β1 was measured using the Quantikine human TGF-β1 immunoassay kit (R&D systems; Minneapolis, Minn.) according to the manufacturer's instructions. The absorbance at 450 nm was measured using a Synergy 2 microplate reader (BioTek, Winooski, Vt.) and the amount of TGF-β1 was calculated by standard curve. MMP9 activity was evaluated by gelatin zymography as described elsewhere (see, e.g., Toth M, et al., Methods Mol Biol 878:121-135, 2012; Zhu P, et al., Exp Dermatol 21:123-129, 2012). Briefly, the supernatant was concentrated using Amicon Ultra-0.5 mL centrifugal filters (Merck Milipore, Darmstadt, Germany) (10 kDa cut off), mixed with non-reducing sample buffer and subjected to electrophoresis in 10% polyacrylamide-0.1% w/v gelatin gels. The gels were then washed in 2.5% Triton X-100 to remove SDS and incubated with developing buffer (50 mM Tris-HCl, pH 7.6, 1 μM ZnCl2 and 5 mM CaCl2) at 37° C. for 36 h. Gels were subsequently stained with 0.2% Coomassie blue and were analyzed with ImageJ.
A general note: Immunoblotting shows a protein as a band on a membrane.

Experiment [2] has as its system HaCaT cells. Put plainly: In vitro wounding assay (PDMS barrier) of keratinocyte migration. In kind it is cell-based, human. The conditions noted are these: HG HaCaT cells; 5 μmol/L SF or 20 μmol/L CA; up to 72 h. On the procedure:
as §1, §2
In vitro wounding assay. […]

Experiment [3] relates to HaCaT cells. Put plainly: Cell growth (xCELLigence) of HaCaT cells. In kind it is cell-based, human. The conditions noted are these: 5 μmol/L SF or 20 μmol/L CA, up to 72 h. On the procedure:
as §1
siRNA transfections. […]
Reactive oxygen species (ROS) measurement, cell proliferation and apoptosis. ROS were measured in HaCaT cells using DCF. […] Then, 48 h later, the cells were switched into fresh medium containing 10 μg/mL DCF, incubated 30 min, and fluorescence intensity was measured by flow cytometry. The rate of cell proliferation was measured by two methods (see, e.g., Ren D, et al., Proc Natl Acad Sci USA 108:1433-1438, 2011): 1) detection of Ki67 using indirect immunofluorescence as described previously (see, e.g., Lau A, et al., Mol Cell Biol 30:3275-3285, 2010); and 2) using the xCELLigence system (Roche). […]

Consider `C[S@@+]([O-])CCCCN=C=S` [SF, L-sulforaphane], for which, in experiment [1], the blood glucose levels result is given as “failed to decrease blood glucose levels” and the body weight result is given as “reversed the body weight loss during the initial phase of diabetes”. In the experiment on NRF2 pathway, the “protein levels of HO-1, AKR1C1, and NQO1” value is given as “further induced”; the “protein levels of NRF2” value is on record as “further NRF2 induction”. For the same compound, the “in vitro wound closure (cell migration)” value in the experiment with HaCaT cells [2] is recorded as “significantly accelerated wound closure in HG cells”. For the same compound, in the experiment on HaCaT cells [3], the “inhibition of cell proliferation by HG (cell growth)” value was “partly counteracted”.

Turning to `O=CC=Cc1ccccc1` [CA, Cinnamaldehyde], in experiment [1], the blood glucose levels entry is reported as “failed to decrease blood glucose levels” and the body weight entry is recorded as “reversed the body weight loss during the initial phase of diabetes”. Besides, in the experiment on NRF2 pathway, the “protein levels of HO-1, AKR1C1, and NQO1” value is “further induced”; the “protein levels of NRF2” value was “further NRF2 induction”. In the experiment on HaCaT cells [2], the “in vitro wound closure (cell migration)” value is recorded as “significantly accelerated wound closure in HG cells”. Besides, the “inhibition of cell proliferation by HG (cell growth)” value in the experiment with HaCaT cells [3] is on record as “partly counteracted”.
